In US6680332B1, “Substituted 5-oxo-5,6,7,8-tetrahydro-4H-1-benzopyrans and benzothiopyrans and the use thereof as potentiators of AMPA” (Euro-Celtique S.A., priority 1999, dated 2004):
Where “and” joins values, the source holds several entries; their conditions need not be identical. Identical values can stand only once.

What was measured:
[1] = tested on: AMPA receptors; experiment: Electrophysiology: potentiation of AMPA-evoked membrane currents in Xenopus oocytes injected with rat cortical poly(A)+ RNA (two-electrode voltage clamp); type: cell-based; settings: 10 μM AMPA; for AMPA positive potentiation 2-fold @ μM (concentration required for 2-fold potentiation of the AMPA response): rat cortical poly(A)+ RNA, holding potential -70 mV
Experimental: FIG. 1 depicts a graph showing the concentration-effect relationship for the potentiation of AMPA-evoked currents in Xenopus oocytes by the compound of Example 4. Xenopus oocytes were injected with rat cortical poly (A+) RNA and membrane currents were measured by a standard, two-microelectrode voltage clamp method. A solution of AMPA (10 μM) was superfused through the recording chamber in the absence (control) or presence of increasing concentrations of the compound of Example 4. “I” is membrane current.
The novel compounds of the invention were assessed by electrophysiological assays in Xenopus oocytes expressing rat […] poly(A)^+ RNA (see Keana et al, J. Med. Chem. 38:4367-4379 (1995)) or in cultured rat cortical neurons (see Woodward et al., Mol. Pharmacol. 47:568-581 (1995)) for AMPA receptor activity. The compounds that potentiate currents across the oocyte membrane are expected to be useful as cognitive enhancers or for the treatment of schizophrenia, myoclonus or neurodegenerative diseases such as Parkinson's disease and Alzheimer's disease. Thus, the present invention is directed to compounds that are positive modulators of AMPA receptors.
Total RNA was prepared from rat cerebral cortex by homogenization in urea/LiCl followed by phenol/chloroform extraction. Polyadenylated (poly A^+) mRNA was isolated from total cellular RNA by oligo-dT cellulose chromatography. Xenopus oocytes were prepared by the method of Woodward et al. (Mol. Pharmacol. 41, 89-103 (1992)). Oocytes were microinjected with approximately 50 ng of cortical poly(A)^+ RNA and stored in Barth's medium (containing in mM: NaCl, 88; KCl, 1; CaCl2, 0.41; Ca(NO3)2, 0.33; MgSO4, 0.82; NaHCO3, 2.4; HEPES 5; pH 7.4, with 0.1 mg/ml gentamycin sulphate) for 6 days prior to recording. Membrane current responses were recorded in frog Ringer solution containing (in mM): NaCl, 115; KCl, 2; CaCl2, 1.8; HEPES, 5; pH 7.4, or in a nominally Ca^2+-free Ringer solution containing (in mM): NaCl, 115; KCl, 2; BaCl2, 1.8; HEPES, 5; pH 7.4. Electrical recordings were made using a conventional two-electrode voltage clamp (Dagan TEV-200). The oocyte was placed in a 5 ml chamber lined with nylon mesh, impaled with two micro-electrodes and voltage-clamped at a holding potential of −70 mV. A scaled up linear array system (Benveniste and Mayer, J. Physiol. 464, 131-163 (1993)) was used to superfuse the oocyte in Ringer solution and to apply drugs and wash solutions. A control concentration (10 μM) of AMPA was applied to the oocyte to determine a baseline membrane current response. The modulation of this response by AMPA potentiators was measured by applying increasing concentrations of the potentiator in Ringer solution for ˜30 s followed by coapplication of the potentiator with 10 μM AMPA. The resulting membrane current responses were analyzed by sigmoidal curve fitting (Origin, Microcal Software, Inc.).

Row | Compound | AMPA positive potentiation 2-fold @ μM (concentration required for 2-fold potentiation of the AMPA response) [1] | EC50 ([1]; sigmoidal curve fitting, read-out: half-maximally effective concentration for potentiation of the AMPA response) [µM] | maximal potentiation of the AMPA response ([1]; at 100 μM compound) [fold] | melting point [°C]
1 | 2-Amino-3-cyano-7,7-dimethyl-4-(3,4-difluoromethylenedioxyphenyl)-5-oxo-5,6,7,8-tetrahydro-4H-1-benzopyran [Example 15] | 18.0 µM |  |  | 
2 | COc1ccc(C2C(C#N)=C(N)OC3=C2C(=O)CC(C)(C)C3)cc1 (stereo not drawn) [Example 1, 2-Amino-3-cyano-7,7-dimethyl-4-(4-methoxyphenyl)-5-oxo-5,6,7,8-tetrahydro-4H-1-benzopyran] | 7.0 µM |  |  | 
3 | Cc1cc(C)c(C2C(C#N)=C(N)OC3=C2C(=O)CC(C)(C)C3)c(C)c1 (stereo not drawn) [Example 2, 2-Amino-3-cyano-7,7-dimethyl-4-(2,4,6-trimethylphenyl)-5-oxo-5,6,7,8-tetrahydro-4H-1-benzopyran] | 4.0 µM |  |  | 
4 | CC1(C)CC(=O)C2=C(C1)OC(N)=C(C#N)C2c1ccccc1 (stereo not drawn) [Example 3, 2-Amino-3-cyano-7,7-dimethyl-4-phenyl-5-oxo-5,6,7,8-tetrahydro-4H-1-benzopyran] | 12.0 µM |  |  | 
5 | CC1(C)CC(=O)C2=C(C1)OC(N)=C(C#N)C2c1ccc2c(c1)OCO2 (stereo not drawn) [Example 4, 2-Amino-3-cyano7,7-dimethyl-4-(3,4-methylenedioxyphenyl)-5-oxo-5,6,7,8-tetrahydro-4H-1-benzopyran] | 4 µM and 4.0 µM | 16.6 | 11 | 
6 | COc1ccc(C2C(C#N)=C(N)OC3=C2C(=O)CCC3)cc1 (stereo not drawn) [Example 5, 2-Amino-3-cyano-4-(4-methoxyphenyl)-5-oxo-5,6,7,8-tetrahydro-4H-1-benzopyran] | 35.0 µM |  |  | 209 to 212
7 | CC1(C)CC(=O)C2=C(C1)OC(N)=C(C#N)C2c1ccc(Cl)cc1 (stereo not drawn) [Example 6, 2-Amino-3-cyano-4-(4chlorophenyl)-7,7-dimethyl-5-oxo-5,6,7,8-tetrahydro-4N-1-benzopyran] | 18.0 µM |  |  | 
8 | CC1(C)CC(=O)C2=C(C1)OC(N)=C(C#N)C2c1cccc(O)c1 (stereo not drawn) [Example 7, 2-Amino-3-cyano-7,7-dimethyl-4-(3-hydroxyphenyl)-5-oxo-5,6,7,8-tetrahydro-4H-1-benzopyran] | 12.0 µM |  |  | 214 to 217
9 | Cc1ccc(C2C(C#N)=C(N)OC3=C2C(=O)CC(C)(C)C3)cc1 (stereo not drawn) [Example 8, 2-Amino-3-cyano-7,7-dimethyl-4-(4-methylphenyl)-5-oxo-5,6,7,8-tetrahydro-4H-1-benzopyran] | 12.0 µM |  |  | 
10 | CN(C)c1ccc(C2C(C#N)=C(N)OC3=C2C(=O)CC(C)(C)C3)cc1 (stereo not drawn) [Example 9, 2-Amino-3-cyano-7,7-dimethyl-4-(4-dimethylaminophenyl)-5-oxo-5,6,7,8-tetrahydro-4H-1-benzopyran] | 12.0 µM |  |  | 221 to 224
11 | CC1(C)CC(=O)C2=C(C1)OC(N)=C(C#N)C2c1ccc(O)cc1 (stereo not drawn) [Example 10, 2-Amino-3-cyano-7,7-dimethyl-4-(4-hydroxyphenyl)-5-oxo-5,6,7,8-tetrakydro-4H-1-benzopyran] | 14.0 µM |  |  | 
12 | COc1cccc(C2C(C#N)=C(N)OC3=C2C(=O)CC(C)(C)C3)c1 (stereo not drawn) [Example 11, 2-Amino-3-cyano-7,7-dimethyl-4-(3-methzoxyphenyl)-5-oxo-5,6,7,8-tetrahydro-4H-1-benzopyran] | 6.0 µM |  |  | 
13 | CC1(C)CC(=O)C2=C(C1)OC(N)=C(C#N)C2c1ccc([N+](=O)[O-])cc1 (stereo not drawn) [Example 12, 2-Amino-3-cyano-7,7-dimethyl-4-(4-nitrophenyl)-5-oxo-5,6,7,8-tetrakydro-4H-1-benzopyran] | 60.0 µM |  |  | 
14 | CC1(C)CC(=O)C2=C(C1)OC(N)=C(C#N)C2c1ccncc1 (stereo not drawn) [Example 13, 2-Amino-3-cyano-7,7-dimethyl-4-(4-pyridyl)-5-oxo-5,6,7,8-tetrahydro-4H-1-benzopyran] | 60.0 µM |  |  | 222 to 224
15 | COc1cc(C2C(C#N)=C(N)OC3=C2C(=O)CC(C)(C)C3)cc2c1OCO2 (stereo not drawn) [Example 14, 2-Amino-3-cyano-7,7-dimethyl-4-(3-methoxy-4,5-methylenedioxyphenyl)-5-oxo-5,6,7,8-tetrahydro-4H-1-benzopyran] | 12.0 µM |  |  | 
16 | CC1(C)CC(=O)C2=C(C1)OC(N)=C(C#N)C2c1ccc(C#N)cc1 (stereo not drawn) [Example 16, 2-Amino-3-cyano-4-(4-cyanophenyl)-7,7-dimethyl-5-oxo-5,6,7,8-tetrahydro-4H-1-benzopyran] | 20.0 µM |  |  | 227 to 230
17 | CC1(C)CC(=O)C2=C(C1)OC(N)=C(C#N)C2c1ccc(F)cc1 (stereo not drawn) [Example 17, 2-Amino-3-cyano-7,7-dimethyl-4-(4-fluorophenyl)-5-oxo-5,6,7,8-tetrahydro-4H-1-benzopyran] | 27.0 µM |  |  | 189 to 193
18 | CC1(C)CC(=O)C2=C(C1)OC(N)=C(C#N)C2c1ccc2ccccc2c1 (stereo not drawn) [Example 18, 2-Amino-3-cyano-7,7-dimethyl-4-(2-naphthyl)-5-oxo-5,6,7,8-tetrahydro-4H-1-benzopyran] | 1.6 µM |  |  | 259 to 262
